Patent publication US11344534B2, “Cholinergic agonism for the treatment of pancreatic cancer” (priority 2017, dated 2022)
“Also recorded” adds a separate entry of the source.

Key:
[1] = system: PDA patients; assay: Pilot feasibility study of bethanechol in patients with resectable PDA; assay type: in vivo, human
Experimental: Our ongoing pilot feasibility study assesses the impact of 1 week of a fixed dose of bethanechol on pharmacodynamics endpoints in resected pancreatic cancer specimens. […] Subjects receive 100 mg of bethanechol by mouth twice daily for 1 week, discontinuing bethanechol 24 hours prior to scheduled surgery. All subjects will be assessed for toxicity while receiving bethanechol, and for 30 days thereafter. The primary endpoint in the pilot study is a change in cell proliferation (Ki-67 index). […] We will compare gene expression profiles and regulatory networks between treated samples with matched controls in our dataset of >200 PDA, RNAseq analysis will be performed.

[2] = system: Panc1 cells; assay: Soft agar assay, human cells; assay type: cell-based; details: human cancer cells (Panc1)
[3] = system: CD44+CD24+EpCAM+ population of Panc1 and BxPC3 cells; assay: Flow cytometry (FACS) of cancer stem cell population; assay type: cell-based, human; details: for CD44+CD24+EpCAM+ cancer stem cell population (FACS): human pancreatic cancer cells, 72 hours pilocarpine
Experimental: Panc-1 cells were grown in 6-well plate to around ˜70% confluent, changed the 0.5% FBS medium, added the drugs respectively and incubated them for further 72 hrs incubation in a typical CO2 incubator (˜20% O2). Afterwards, cells were kept on ice in blocking solution (PBS pH 7.2 containing ? 3% bovine serum albumin, 2 mM EDTA) for 20 minutes. Cells were then stained with a PE-conjugated antibody against CD24, a FITC-conjugated antibody against CD44, and an APC-conjugated antibody against CD326 (1:100—in blocking solution) on ice for 30 minutes. The cells were then washed, reconstituted in sorting buffer (PBS pH 7.2 containing 0.5% bovine serum albumin, 2 mM EDTA)+DAPI and analyzed using a BD FACSAria II.
Panc1 and BxPC3 cells were grown in 6-well plate to ˜70% confluency, the media was changed to 0.5% FBS medium, the respective drugs were added, and they were incubated for an additional 72 hrs in a typical CO2 incubator (˜5% CO2). Subsequently, cells were kept on ice in blocking solution (PBS pH 7.2 containing 3% bovine serum albumin, 2 mM EDTA) for 20 minutes. Cells were then stained with a PE-conjugated antibody against CD24, a FITC-conjugated antibody against CD44, and an APC-conjugated antibody against CD326 (1:100 in blocking solution) on ice for 30 minutes. The cells were then washed, reconstituted in sorting buffer (PBS pH 7.2 containing 0.5% bovine serum albumin, 2 mM EDTA)+DAPI and analyzed using a BD FACSAria II.

[4] = system: Chrm1; assay: qRT-PCR of muscarinic receptor expression, murine PDAC cell lines; assay type: cell-based, mouse; details: murine PDAC cell lines (Panc02 and K8282), compared to control
[5] = system: Panc1 cells; assay: RNAseq of Panc1 cells after pilocarpine treatment; assay type: cell-based, human
Experimental: Panc1 cells were lysed in RNA lysis buffer supplied in […] PicoPure RNA isolation kit (Life Technologies)(n=4). Total RNA was isolated in accordance with the manufacturer's protocol. cDNA was amplified and libraries were constructed by using SMARTer Ultra Low Input RNA Kit (Clontech Laboratories) and Nextera XT DNA Library Preparation Kit (Illumina) according to the respective manufacturer's instructions. Sequencing was performed with Hiseq 2500 (Illumina) (30 M 100 bp single end reads per sample). Sequenced reads were mapped to the NCBI annotated genes of the […] with BowTie2 and TopHat 2.0.4^5, 6. Reads were counted with HTSeq. Expression datasets were deposited in the Gene Expression Omnibus (GEO)^7 (GSE102880 code: armlggayprundsh). Samples were normalized with the TMM algorithm. The statistical significance of differential expression was estimated with weighted Limma-Voom^8, 9 which runs under Bioconductor/R^10-12. […] First, a screen in terms of Gene Ontology^14 categories for consistency with phenotype was performed. Genes were retained which either: 57 genes fulfilled these requirements, these genes were analyzed further in terms of KEGG pathways^15 with iPathwayGuide^16, 17

[6] = system: primary human PDA organoids; assay: Primary human PDA organoids treated with pilocarpine; assay type: cell-based; details: dose-dependent, 100DM pilocarpine in FIG. 21B
Source text: To better understand the effect of growth inhibition by muscarinic agonists in human pancreatic epithelial cells, we generated primary human PDA organoids. Treatment with the broad muscarinic agonist, pilocarpine, reduced the number of viable organoids in a dose-dependent manner (FIGS. 21A-B). Treatment of human pancreatic cancer cells (Panc1) with pilocarpine reduced the size of the CD44+CD24+EpCAM+putative cancer stem cell population in a dose dependent manner (FIG. 21C) and inhibited tumor initiation in NOD/SCID mice (FIG. 21D). To better understand growth inhibition by muscarinic agonists, we analyzed changes in signaling molecules in animal models and PDA cell lines. […] Surprising, a number of signaling molecules were suppressed by both nonspecific and M1R-specific muscarinic agonists, including EGFR, B-RAF, ERK1/2, PI3K, and AKT kinase. These kinases all show reduced phosphorylation by muscarinic agonists, which was abrogated by treatment with muscarinic antagonists. Finally, we analyzed Panc-1 cells following pilocarpine treatment (1 mM, 72 hrs) using RNAseq, and noted that many of the genes suppressed by pilocarpine included EGFR and PI3K^17.

[7] = Panc1 cells, pilocarpine, preliminary analysis
[8] = Panc-1 cells treated with pilocarpine

| SMILES | plasma TNFα levels ([1]; PDA patients, bethanechol 100 mg twice daily for 1 week, preliminary pilot data) | Ki-67, CD44, pERK and p-EGFR (IHC staining of PDA tissue) ([1]; bethanechol-treated patients compared to untreated patients) | other cytokine levels such as ICAM-1 and MIF ([1]; plasma of a study patient, pre- vs post-treatment, cytokine antibody array) | colonies / sphere formation in soft agar [2] | CD44+CD24+EpCAM+ cancer stem cell population (FACS) [3] | CD44+CD24+EpCAM+ cancer stem cell population (FACS) ([3]; listed as Pilocarpine) | suppression of CD44+CD24+EpCAM+ cancer stem cells ([3]; pilocarpine at doses of 100-500 rμM, preliminary studies) [%] | Chrm1 expression [4] | expression of growth related genes EGFR and PI3K (RNAseq) ([5]; Panc1 cells, pilocarpine 1 mM, 72 hrs) | expression of PIK3CA(PI3K), EGFR, KDR(RTK), ITGAV(ITGA), NTRKB(TRKB) and BRAF(RafB) (RNAseq, KEGG pathways) ([5]; Panc1 cells, pilocarpine treated vs untreated) | expression of BDNF and NGF [5, 7] | expression of TRK-B receptor (NTRK2) [5, 7] | expression of BRAF, EGFR, PIK3CA, ITGAV, KDR, and FOXO3 (RNAseq) [5, 8] | expression of STK11 and FOX06 (RNAseq) [5, 8] | number of viable organoids [6] |
| --- | --- | --- | --- | --- | --- | --- | --- | --- | --- | --- | --- | --- | --- | --- | --- |
| CC(C[N+](C)(C)C)OC(N)=O (stereo not drawn) [bethanechol, 2-[(aminocarbonyl)oxy]-N,N,N-trimethyl-1-propanaminium] | trend towards lower | might lead to a decrease | possible reductions |  |  |  |  |  |  |  |  |  |  |  |  |
| CC[C@@H]1C(=O)OC[C@@H]1Cc1cncn1C [pilocarpine, (3S,4R)-3-ethyl-4-[(3-methylimidazol-4-yl)methyl]oxolan-2-one] |  |  |  | significantly fewer | marked suppression; also recorded: reduced; also recorded: Dose dependent decrease | remarkable suppression | > 50 | decreased; also recorded: lower | suppressed | downregulated | moderately decreased | one of the most downregulated genes | downregulation | upregulation | reduced |
